{"source": "patent US20230279025A1", "about": "“KRAS G12D INHIBITORS” (Mirati Therapeutics, Inc., priority 2020, published 2023)", "key": {"KRas G12D [1]": {"target": "T1, KRas G12D (Homo sapiens (Human), UniProt P01116, G12D)", "test": "KRas G12D Surface Plasmon Resonance (SPR) Binding Assay", "conditions": "Biacore T200, immobilized biotinylated KRAS protein, 1:1 binding model"}, "KRas G12D [2]": {"target": "T1, KRas G12D", "test": "KRas G12D Binding Assay (TR-FRET displacement of Cy5 labelled tracer)", "conditions": "GDP-loaded KRAS G12D (amino acids 1:169), 60 minute incubation at 22° C.", "method": "After a 60 minute incubation at 22° C., the reaction was measured using a PerkinElmer EnVision multimode plate reader via TR-FRET dual wavelength detection, and the percent of control (POC) calculated using a ratiometric emission factor. […] The POC values were fit to a 4-parameter logistic curve and the IC50 value was determined as the concentration where the curve crosses 50 POC.\nND stands for “not determined.”"}, "[3]": {"test_system": "KRas G12D-mediated phosphorylation of ERK in AGS cells (ATCC CRL-1739) expressing G12D", "test": "Inhibition of KRas G12D-mediated Phosphorylation of ERK in AGS cells", "format": "cell-based", "conditions": "Homo sapiens; phospho-ERK(Thr202/Tyr204) normalized to GAPDH, AGS cells, 3 hours; read-out: IC50", "method": "Cells were plated in tissue culture treated 96 well plates at a density of 40,000 cells/well and allowed to attach for 12-14 hours. Diluted compounds were then added in a final concentration of 0.5% DMSO. After 3 hours, the medium was removed, 150 μL of 4.0% formaldehyde was added and the plates incubated at room temperature for 20 minutes. The plates were washed with PBS, and permeabilized with 150 μL of ice cold 100% methanol for 10 minutes. Non-specific antibody binding to the plates was blocked using […] Licor blocking buffer (Li-Cor Biotechnology, Lincoln Nebr.) for 1 hour at room temperature.\nThe amount of phospho-ERK was determined using an antibody specific for the phosphorylated form of ERK and compared to the amount of GAPDH. Primary antibodies used for the detection were added as follows: Phospho-ERK(Cell Signaling cs-9101) diluted 1:500 and GAPDH(Millipore MAB374) diluted 1:5000 in Licor block+0.05% Tween 20. The plates were incubated for 2 hours at room temperature. The plates were washed with PBS+0.05% Tween 20.\nSecondary antibodies used to visualize primary antibodies were added as follows: Anti-rabbit-680 diluted 1:1000 and Anti-mouse-800 diluted 1:1000 both in Licor block+0.05% TweeN20, and were incubated for 1 hour at room temperature. The plates were washed with PBS +0.05% Tween 20. A 100 μL aliquot of PBS was added to each well and the plates were read on a Li-Cor Odyssey CLX plate reader."}, "[4]": {"test": "Whole Blood Stability (WBS), human whole blood", "format": "in vitro ADME", "quoted_text": "Compounds (2 μM) were incubated at 37° C. for 0, 10, 30, 60, and 120 min in a 1:1 (v/v) blood and PBS, pH 7.4. Diluted blood was preincubated for 15 min at 37° C. before the reactions were initiated with the dosing of the compound. At the end of incubation, the same volume of water was mixed with the spiked blood samples, and then stop solution (200 ng/mL tolbutamide and 200 ng/mL labetalol in MeOH) was added to precipitate protein. Mixed thoroughly. Samples were centrifuged, and supernatants were analyzed by LC-MS/MS."}}}
{"smiles": "CC(C)N1CCC[C@H]1COc1nc(N2C[C@H]3C[C@@H](O)[C@@H](C2)N3)c2cnc(-c3cccc4cccc(Cl)c34)c(F)c2n1", "note": "[Example 153, (1R,5R,6R)-3-(7-(8-chloronaphthalen-1-yl)-8-fluoro-2-(((S)-1-isopropylpyrrolidin-2-yl)methoxy)pyrido[4,3-d]pyrimidin-4-yl)-3,8-diazabicyclo[3.2.1]octan-6-ol]", "values": [{"measurement": "Kd", "setting": "KRas G12D [1]", "result": 70.5, "unit": "nM"}, {"measurement": "IC50", "setting": "KRas G12D [2]", "result": 50.8, "unit": "nM"}, {"measurement": "IC50", "setting": "[3]", "result": 2370, "unit": "nM"}]}
{"smiles": "C#Cc1c(F)ccc2cc(O)cc(-c3ncc4c(N5C[C@H]6CC[C@@H](C5)N6C(=O)OCOC(=O)CCCCCCCCC)nc(OC[C@@]56CCCN5C[C@H](F)C6)nc4c3F)c12", "note": "[Example 471, (Decanoyloxy)methyl (1R,5S)-3-(7-(8-ethynyl-7-fluoro-3-hydroxynaphthalen-1-yl)-8-fluoro-2-(((2R,7aS)-2-fluorotetrahydro-1H-pyrrolizin-7a(5H)-yl)methoxy)pyrido[4,3-d]pyrimidin-4-yl)-3,8-diazabicyclo[3.2.1]octane-8-carboxylate]", "values": [{"measurement": "% remaining in human whole blood", "setting": "[4]; time point 0 min", "result": 100, "unit": "%"}, {"measurement": "% remaining in human whole blood", "setting": "[4]; time point 10 min", "result": 105, "unit": "%"}, {"measurement": "% remaining in human whole blood", "setting": "[4]; time point 30 min", "result": 77, "unit": "%"}, {"measurement": "% remaining in human whole blood", "setting": "[4]; time point 60 min", "result": 51, "unit": "%"}, {"measurement": "% remaining in human whole blood", "setting": "[4]; time point 120 min", "result": 31, "unit": "%"}]}
{"smiles": "O[C@@H]1C[C@@H]2CN(c3nc(OCC45CCCN4CCC5)nc4c(F)c(-c5cccc6cccc(Cl)c56)ncc34)C[C@H]1N2", "note": "[Example 49, (1R,5R,6R)-3-(7-(8-chloronaphthalen-1-yl)-8-fluoro-2-((tetrahydro-1H-pyrrolizin-7a(5H)-yl)methoxy)pyrido[4,3-d]pyrimidin-4-yl)-3,8-diazabicyclo[3.2.1]octan-6-ol]", "values": [{"measurement": "Kd", "setting": "KRas G12D [1]", "result": 0.4, "unit": "nM"}, {"measurement": "IC50", "setting": "KRas G12D [2]", "result": 5.9, "unit": "nM"}, {"measurement": "IC50", "setting": "[3]", "result": 2120, "unit": "nM"}]}
{"smiles": "Oc1cc(-c2ncc3c(N4C[C@H]5CC[C@@H](C4)N5)nc(OCCCN4C[C@@H]5C[C@H]4CO5)nc3c2F)c2ccccc2c1", "note": "[Example 24, 4-(2-(3-((1S,4S)-2-oxa-5-azabicyclo[2.2.1]heptan-5-yl)propoxy)-4-((1R,5S)-3,8-diazabicyclo[3.2.1]octan-3-yl)-8-fluoropyrido[4,3-d]pyrimidin-7-yl)naphthalen-2-ol]", "values": [{"measurement": "Kd", "setting": "KRas G12D [1]", "result": 5, "unit": "nM"}, {"measurement": "IC50", "setting": "KRas G12D [2]", "result": 7.9, "unit": "nM"}, {"measurement": "IC50", "setting": "[3]", "result": 2890, "unit": "nM"}]}
{"smiles": "N#CC[C@@H]1C[C@@H]2CN(c3nc(OC[C@@]45CCCN4C[C@H](F)C5)nc4c(F)c(-c5cc(O)cc6ccccc56)ncc34)C[C@H]1N2", "note": "(racemic) [Example 339, 2-((1R,5S,6S)-3-(8-fluoro-2-((2-fluorotetrahydro-1H-pyrrolizin-7a(5H)-yl)methoxy)-7-(3-hydroxynaphthalen-1-yl)pyrido[4,3-d]pyrimidin-4-yl)-3,8-diazabicyclo[3.2.1]octan-6-yl)acetonitrile (racemic, trans)]", "values": [{"measurement": "Kd", "setting": "KRas G12D [1]", "result": 21.6, "unit": "nM"}, {"measurement": "IC50", "setting": "KRas G12D [2]", "result": 21, "unit": "nM"}, {"measurement": "IC50", "setting": "[3]", "result": 8660, "unit": "nM"}]}
{"smiles": "Oc1cc(-c2ncc3c(N4C[C@H]5CC[C@@H](C4)N5)nc(OCCN4C[C@@H]5C[C@H]4CO5)nc3c2F)c2ccccc2c1", "note": "[Example 26, 4-(2-(2-((1S,4S)-2-oxa-5-azabicyclo[2.2.1]heptan-5-yl)ethoxy)-4-((1R,5S)-3,8-diazabicyclo[3.2.1]octan-3-yl)-8-fluoropyrido[4,3-d]pyrimidin-7-yl)naphthalen-2-ol]", "values": [{"measurement": "Kd", "setting": "KRas G12D [1]", "result": 27.9, "unit": "nM"}, {"measurement": "IC50", "setting": "KRas G12D [2]", "result": 42.1, "unit": "nM"}, {"measurement": "IC50", "setting": "[3]", "result": 4280, "unit": "nM"}]}
{"smiles": "C#Cc1c(F)ccc2cc(O)cc(-c3ncc4c(N5C[C@H]6CC[C@@H](C5)N6)nc(OC[C@@]56CCCCN5C[C@H](F)C6)nc4c3F)c12", "note": "[Example 469, 4-(4-((1R,5S)-3,8-diazabicyclo[3.2.1]octan-3-yl)-8-fluoro-2-(((2R,8aS)-2-fluorooctahydroindolizin-8a-yl)methoxy)pyrido[4,3-d]pyrimidin-7-yl)-5-ethynyl-6-fluoronaphthalen-2-ol]", "values": [{"measurement": "IC50", "setting": "KRas G12D [2]", "result": "< 0.002", "unit": "nM"}, {"measurement": "IC50", "setting": "[3]", "result": 31.6, "unit": "nM"}]}
